# Where a SMILES comes first, the peptide text is derived from it. [ ]: non-standard residue; d: D form.
# Columns and labels:
# PKC-ε [1] = target: T1, PKC-ε (Homo sapiens, UniProt Q02156); assay: Competitive binding assay using cell extracts (Western blot); parameters: cytoplasmic extracts from different cell lines expressing appropriate PKC isoforms; endogenous in cells; host or cells: CCD16Lu, LnCAP, Du145, MDAMB231, LS180; key: —: no detectable affinity; Low to very low affinity at 10X or 20X or both PRE concentrations in at least one cell line in the cell extract assay; Low affinity in purified isoform assay.; Moderate affinity at 10X or 20X or both PRE concentrations in at least one cell line in the cell extract assay.; High affinity at 10X or 20X or both PRE concentrations in at least one cell line in the cell extract assay; High affinity in purified isoform assay; conditions: Cell extract; PRE 10X or 20X antibody concentration
# T1 sequence (Q02156 1-737): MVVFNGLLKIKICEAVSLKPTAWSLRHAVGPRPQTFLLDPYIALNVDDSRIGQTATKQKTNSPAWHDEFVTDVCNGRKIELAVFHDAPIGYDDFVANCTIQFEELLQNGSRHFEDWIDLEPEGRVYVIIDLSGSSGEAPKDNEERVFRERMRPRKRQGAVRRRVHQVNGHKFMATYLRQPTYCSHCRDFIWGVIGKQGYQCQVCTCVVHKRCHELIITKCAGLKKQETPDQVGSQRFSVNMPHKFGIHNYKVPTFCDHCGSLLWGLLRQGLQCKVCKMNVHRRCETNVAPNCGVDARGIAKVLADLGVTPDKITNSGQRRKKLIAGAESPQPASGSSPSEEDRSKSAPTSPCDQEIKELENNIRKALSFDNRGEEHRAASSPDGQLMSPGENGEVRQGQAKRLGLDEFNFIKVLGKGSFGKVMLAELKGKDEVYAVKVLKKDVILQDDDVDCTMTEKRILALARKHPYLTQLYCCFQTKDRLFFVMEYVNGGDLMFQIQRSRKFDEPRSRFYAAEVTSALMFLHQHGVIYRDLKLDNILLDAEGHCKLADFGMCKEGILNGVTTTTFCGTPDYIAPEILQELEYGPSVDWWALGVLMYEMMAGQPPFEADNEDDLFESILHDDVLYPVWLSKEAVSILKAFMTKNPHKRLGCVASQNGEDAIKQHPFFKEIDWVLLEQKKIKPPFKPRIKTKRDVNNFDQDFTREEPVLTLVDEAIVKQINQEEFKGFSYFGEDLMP
# Protocol: (§1) Binding efficiency and specificity of the peptides PRE 2, 3, 4, 5, 6, 7, 8, 9, 10, 11, 12 and 13 (see Table 4) was also tested using cytoplasmic extracts from different cell lines expressing appropriate PKC isoforms as described for Example 1. Briefly, the protein cytoplasmic extracts were separated by electrophoresis and transferred onto nitrocellulose membranes by standard Western blotting procedures. The bands on the Western blots were detected with matching primary antibodies and alkaline phosphatase conjugated secondary antibody. The bands were then scanned and the relative density measurements obtained.
# (§2) This procedure to assess the binding characteristics of the PREs is based on competition binding of the PRE with the primary anti-isoform PKC specific antibodies. The lower the measured band density, the greater the binding of the PRE to the PKC isoform. The PREs were added at 10 and 20 times (10×, 20×) the primary antibody concentration, according to classical competition between antigenic peptide and primary antibody. The following cell lines (obtained from the ATCC) were used: H661—NCI human lung carcinoma NSCLC; MDAMB231—human highly invasive breast cancer cell line from pleural effusion; LS180—human colon adenocarcinoma; LnCAP—human prostate adenocarcinoma; CCD16Lu—human lung fibroblasts; Du145—human prostate carcinoma brain metastasis, and T24—human bladder carcinoma.
# (§3) In these cases, the 20× band density figures relative to control and 10× values were reliable.
# PKC-ι = target: T2, PKC-ι (Homo sapiens, UniProt P41743); assay: as above; parameters: key: —: no detectable affinity; Low to very low affinity at 10X or 20X or both PRE concentrations in at least one cell line in the cell extract assay; Low affinity in purified isoform assay.; Moderate affinity at 10X or 20X or both PRE concentrations in at least one cell line in the cell extract assay.; High affinity at 10X or 20X or both PRE concentrations in at least one cell line in the cell extract assay; High affinity in purified isoform assay; conditions: Cell extract; PRE 10X or 20X antibody concentration
# T2 construct: cytoplasmic extracts from different cell lines expressing appropriate PKC isoforms; endogenous in cells; host or cells: H661, CCD16Lu, LnCAP, MDAMB231, Du145, LS180
# T2 sequence (P41743 1-596): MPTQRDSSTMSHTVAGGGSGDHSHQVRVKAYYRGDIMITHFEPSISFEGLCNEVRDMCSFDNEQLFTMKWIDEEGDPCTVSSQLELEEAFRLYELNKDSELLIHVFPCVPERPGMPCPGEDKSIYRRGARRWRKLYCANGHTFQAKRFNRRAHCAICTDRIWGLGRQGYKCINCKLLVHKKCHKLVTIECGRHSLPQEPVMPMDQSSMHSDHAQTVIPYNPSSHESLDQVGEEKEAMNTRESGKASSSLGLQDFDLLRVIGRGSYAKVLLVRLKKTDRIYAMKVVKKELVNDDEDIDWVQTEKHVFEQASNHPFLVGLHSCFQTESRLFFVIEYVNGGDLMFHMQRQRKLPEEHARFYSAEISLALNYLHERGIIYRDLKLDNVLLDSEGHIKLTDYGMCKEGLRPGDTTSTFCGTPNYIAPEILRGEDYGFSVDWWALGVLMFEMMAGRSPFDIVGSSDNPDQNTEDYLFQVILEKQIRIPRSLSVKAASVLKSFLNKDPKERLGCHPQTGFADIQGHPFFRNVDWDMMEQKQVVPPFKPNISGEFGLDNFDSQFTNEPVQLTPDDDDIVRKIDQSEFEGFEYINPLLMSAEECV
# Protocol: as §1, §2, §3
# PKC-ε [2] = assay: Competition of PRE with PKC-ε antibody binding, Protocol B, IMR-32; parameters: species or system human
# Protocol: Peptides PRE 2, PRE 3 and PRE 4 (see Table 4) were tested for their ability to interfere with the binding of isoform-specific polyclonal antibodies (Santa Cruz Biotechnology, Inc.) to […] using the general protocol described in Example 3. Two bands, representing alternate splicing variants of PKC-ε, were identified on the Western blot using this anti-PKC-ε antibody.
compound,measurement,setting,value
Ac-ISIGILQNADK-NH2 (not fully specified; printed as Ac-ISIGILQNADK-NH2) [PRE 7],Affinity for PKC isoform ε,PKC-ε [1],—
same,Affinity for PKC isoform ι,PKC-ι,—
RRKKGGKDFVVKR [PRE 1],Affinity for PKC isoform ι,PKC-ι,—
Ac-RDAQNLI-NH2 [PRE 13],Affinity for PKC isoform ε,PKC-ε [1],—
same,Affinity for PKC isoform ι,PKC-ι,—
Ac-ISIGILNQADK-NH2 [PRE 10],Affinity for PKC isoform ε,PKC-ε [1],M/L
"CC[C@H](C)[C@H](NC(=O)[C@H](CO)NC(=O)[C@@H](NC(=O)CNC(=O)[C@@H](NC(=O)[C@H](CC(C)C)NC(=O)[C@H](CC(N)=O)NC(=O)[C@H](CCC(N)=O)NC(=O)[C@H](C)NC(=O)[C@H](CC(=O)O)NC(=O)[C@H](CCCCN)NC(C)=O)[C@@H](C)CC)[C@@H](C)CC)C(N)=O [PRE 4, Ac-KDAQNLIGISI-NH2] (Ac-KDAQNLIGISI-NH2)",Inhibition (%),"PKC-ε [2]; 20 μg, PKC-ε Band 1",42.9%
same,Relative Intensity (%),"PKC-ε [2]; 20 μg, PKC-ε Band 1",57.1%
same,Inhibition (%),"PKC-ε [2]; 20 μg, PKC-ε Band 2",46.6%
same,Relative Intensity (%),"PKC-ε [2]; 20 μg, PKC-ε Band 2",53.33%
same,Inhibition (%),"PKC-ε [2]; 50 μg, PKC-ε Band 1",100.0%
same,Relative Intensity (%),"PKC-ε [2]; 50 μg, PKC-ε Band 1",0.0%
same,Inhibition (%),"PKC-ε [2]; 50 μg, PKC-ε Band 2",100.0%
same,Relative Intensity (%),"PKC-ε [2]; 50 μg, PKC-ε Band 2",0.0%
same,Inhibition (%),"PKC-ε [2]; 100 μg, PKC-ε Band 1",100.0%
same,Relative Intensity (%),"PKC-ε [2]; 100 μg, PKC-ε Band 1",0.0%
same,Inhibition (%),"PKC-ε [2]; 100 μg, PKC-ε Band 2",100.0%
same,Relative Intensity (%),"PKC-ε [2]; 100 μg, PKC-ε Band 2",0.0%
same,Affinity for PKC isoform ε,PKC-ε [1],H/L
same,Affinity for PKC isoform ι,PKC-ι,M/L
CC[C@H](C)[C@H](NC(=O)[C@H](CO)NC(=O)[C@@H](NC(=O)CNC(=O)[C@@H](NC(=O)[C@H](CC(C)C)NC(=O)[C@H](CC(N)=O)NC(=O)[C@H](CCC(N)=O)NC(=O)[C@H](C)NC(=O)[C@H](CC(=O)O)NC(=O)CNC(=O)CNC(=O)[C@H](CCCCN)NC(=O)[C@@H](NC(=O)[C@H](CCC(=O)O)NC(=O)[C@H](CCC(N)=O)NC(=O)[C@@H](NC(=O)CNC(=O)[C@H](CCCCN)NC(=O)[C@H](C)NC(C)=O)[C@@H](C)CC)C(C)C)[C@@H](C)CC)[C@@H](C)CC)C(N)=O [PRE 3] (Ac-AKGIQEVKGGDAQNLIGISI-NH2),Inhibition (%),"PKC-ε [2]; 20 μg, PKC-ε Band 1",99.0%
same,Relative Intensity (%),"PKC-ε [2]; 20 μg, PKC-ε Band 1",0.12%
same,Inhibition (%),"PKC-ε [2]; 20 μg, PKC-ε Band 2",100.0%
same,Relative Intensity (%),"PKC-ε [2]; 20 μg, PKC-ε Band 2",0.0%
same,Inhibition (%),"PKC-ε [2]; 50 μg, PKC-ε Band 1",100.0%
same,Relative Intensity (%),"PKC-ε [2]; 50 μg, PKC-ε Band 1",0.0%
same,Inhibition (%),"PKC-ε [2]; 50 μg, PKC-ε Band 2",100.0%
same,Relative Intensity (%),"PKC-ε [2]; 50 μg, PKC-ε Band 2",0.0%
same,Inhibition (%),"PKC-ε [2]; 100 μg, PKC-ε Band 1",100.0%
same,Relative Intensity (%),"PKC-ε [2]; 100 μg, PKC-ε Band 1",0.0%
same,Inhibition (%),"PKC-ε [2]; 100 μg, PKC-ε Band 2",100.0%
same,Relative Intensity (%),"PKC-ε [2]; 100 μg, PKC-ε Band 2",0.0%
same,Affinity for PKC isoform ε,PKC-ε [1],L
same,Affinity for PKC isoform ι,PKC-ι,L
CC[C@H](C)[C@H](NC(=O)[C@H](CO)NC(=O)[C@@H](NC(=O)CNC(=O)[C@@H](NC(=O)[C@H](CC(C)C)NC(=O)[C@H](CC(N)=O)NC(=O)[C@H](CCC(N)=O)NC(=O)[C@H](C)NC(=O)[C@H](CC(=O)O)NC(=O)[C@H](CCCCN)NC(=O)CNC(=O)CNC(=O)[C@H](CCCCN)NC(=O)[C@@H](NC(=O)[C@H](CCC(=O)O)NC(=O)[C@H](CCC(N)=O)NC(=O)[C@@H](NC(=O)CNC(=O)[C@H](CCCCN)NC(=O)[C@H](C)NC(C)=O)[C@@H](C)CC)C(C)C)[C@@H](C)CC)[C@@H](C)CC)C(N)=O [PRE 5] (Ac-AKGIQEVKGGKDAQNLIGISI-NH2),Affinity for PKC isoform ε,PKC-ε [1],L
Ac-isigilqnadk-NH2 (Ac-[dI][dS][dI]G[dI][dL][dQ][dN][dA][dD][dK]-NH2; SMILES CC[C@@H](C)[C@@H](NC(C)=O)C(=O)N[C@H](CO)C(=O)N[C@@H](C(=O)NCC(=O)N[C@@H](C(=O)N[C@H](CC(C)C)C(=O)N[C@H](CCC(N)=O)C(=O)N[C@H](CC(N)=O)C(=O)N[C@H](C)C(=O)N[C@H](CC(=O)O)C(=O)N[C@H](CCCCN)C(N)=O)[C@H](C)CC)[C@H](C)CC) [PRE 9],Affinity for PKC isoform ε,PKC-ε [1],M/L
ILEDKGGDAQNLIGISI [PRE 8],Affinity for PKC isoform ε,PKC-ε [1],L
Ac-RDAQNLIGISI-NH2 [PRE 11],Affinity for PKC isoform ε,PKC-ε [1],—
Ac-KDANQLIGISI-NH2 [PRE 6],Affinity for PKC isoform ε,PKC-ε [1],M
same,Affinity for PKC isoform ι,PKC-ι,—
Ac-KDAQNLI-NH2 [PRE 12],Affinity for PKC isoform ε,PKC-ε [1],—
same,Affinity for PKC isoform ι,PKC-ι,—
